Holding throughout (assay): inhibition of tumour cell growth, NCI panel, 48 h
Assay [1] relates to OVCAR-4 ovarian.
Assay [2] relates to NCI-H226 lung.
Assay [3] has as its system SK-MEL-28 melanoma.
The test system of assay [4] is LOX IMVI melanoma.
Assay [5] deals with SNB-19 CNS.
In assay [6] the test system is BT-549 breast.
In assay [7] the test system is HT29 colon.
In assay [8] the test system is 786-0 renal.
Assay [9] relates to MDA-MB-435.
Assay [10] deals with CCRF-CEM leukemia.

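All cell lines were grown in 96-well plates and treated with compound for 48 hours. GI50 marks 50% less growth. Definition used: TGI = concentration required for complete inhibition of growth.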

In the case of `CCN1CCCCC(=N\O)/C(=N/O)CCCC1`, the TGI in assay [1], in [2], in assay [3], in assay [4], in assay [5] and in assay [6] was above 100 µM throughout. Also, the TGI in [7], in [8], in assay [9] and in [10] was above 100 µM in each case.

Regarding `C#CC#CC#CC#CC#CC#CC#CC#CCC1OC[C@H](COC(=O)O[C@@H](C(=O)O[C@H]2C[C@@]3(O)[C@@H](OC(=O)c4ccccc4)[C@@H]4[C@]5(OC(C)=O)CO[C@@H]5C[C@H](O)[C@@]4(C)C(=O)[C@H](OC(C)=O)C(=C2C)C3(C)C)[C@@H](NC(=O)c2ccccc2)c2ccccc2)O1` (stereo not given in full), the GI50 in assay [1] is above 33.3 µM; in assay [2], above 33.3 µM; in assay [4], 0.199 µM; in [5] it was 1.14 µM; in assay [6], 1.01 µM; in assay [7], 0.114 µM. Moreover, the GI50 in assay [8] was 8.21 µM; in assay [9], 0.044 µM; in assay [10], 0.632 µM. The TGI in [1], in assay [2], in [4], in assay [5], in assay [6] and in assay [7] was above 33.3 µM each time. Also, the TGI in assay [8] was above 33.3 µM; in assay [9], 0.109 µM; in assay [10] it was above 33.3 µM.

`Cc1[nH]nc(C(=O)Nc2n[nH]c3ccccc23)c1[N+](=O)[O-]`: the GI50 in [1] was above 100 µM; in assay [2] it was above 100 µM; in assay [3] it was above 100 µM; in assay [4] it was above 100 µM; in [5] it was above 100 µM; in assay [6], 26.5 µM. For the same compound, the GI50 in assay [7], in [8] and in assay [9] was above 100 µM in each case. Further, the TGI in assay [1], in assay [2], in assay [3], in assay [4], in assay [5] and in assay [6] was above 100 µM throughout. The TGI in assay [7], in assay [8] and in [9] was above 100 µM throughout.

On to `COc1cccc(C2C(C#N)=C(N)Oc3cc(OC)ccc32)c1` (stereo not given), for which the GI50 was 1.96 µM in assay [1]; 0.896 µM in assay [2]; 0.0577 µM in [3]; 0.0835 µM in [4]; 0.517 µM in assay [5]; 0.106 µM in [6]. Moreover, the GI50 in assay [7] was 0.0416 µM; in [8], 0.0556 µM; in [10], 0.0328 µM. Moreover, the TGI was above 96.8 µM in [1]; above 100 µM in assay [2]; above 100 µM in [3]; above 100 µM in assay [4]; above 89.6 µM in assay [5]; 17 µM in [6]. Moreover, the values for the TGI in [7], in [8] and in assay [10] were 4.96 µM, above 66.8 µM and above 45.7 µM, respectively.

Consider `COP1(=S)OCC2CCC[C@@H]2O1` (stereo not given in full), for which the TGI in [1], in assay [2], in assay [3], in assay [5], in assay [6] and in assay [7] was above 100 µM each time. Further, the TGI in [8], in assay [9] and in [10] was above 100 µM each time.

Regarding `O=C(Nc1ccccc1F)c1ccc(NC2=C(Cl)C(=O)N(Cc3ccccc3)C2=O)cc1`, the GI50 in [1] was 11.1 µM; in assay [2], 11.2 µM; in assay [3] it was 3.88 µM; in assay [4], 2.35 µM; in [5] it was 11.6 µM; in [6], 3.13 µM. Besides, the figures for the GI50 in assay [7], in assay [8] and in assay [9] were 4.18 µM, 14 µM and 3.07 µM, respectively. Further, the TGI in assay [1] worked out at 23.1 µM; in [2], 25.2 µM; in assay [3], 13.5 µM; in [4], 5.9 µM; in assay [5], 23.8 µM; in [6], 9.62 µM. In addition, the TGI in assay [7] was 13.5 µM; in assay [8] it was 27 µM; in assay [9], 11.5 µM.

For the compound `COc1cccc2c(Nc3ccc(C(=O)NCCN(C)C)cc3)cc(-c3ccccc3)nc12`, the GI50 in [1] is 33 µM; in assay [2], 19.3 µM; in [3], 37.1 µM; in assay [4], 18.1 µM; in [6] it was 20.3 µM; in assay [7] it was 28.5 µM. Further, the GI50 in [8] was 2.26 µM; in assay [9], 22 µM; in assay [10], 8.86 µM. Also, the TGI was above 100 µM in assay [1]; 40 µM in assay [2]; above 100 µM in assay [3]; 33.9 µM in [4]; 44.8 µM in assay [6]; above 100 µM in assay [7]. Besides, the TGI in assay [8] was 14.2 µM; in [9] it was 39.1 µM; in assay [10] it was 33.2 µM.

For `N#Cc1ccc2oc3ccc(C#N)cc3c(=O)c2c1`, the TGI in assay [1] worked out at 38.3 µM; in assay [2], 77.5 µM; in [3] it was 36.7 µM; in assay [5] it was 64.8 µM; in assay [6], 53.7 µM; in [7], 40.1 µM. Further, the values for the TGI in assay [8], in assay [9] and in assay [10] were 68 µM, above 100 µM and 74 µM, respectively.

As for `CS(=O)(=O)CS(=O)CS(=O)CS(=O)CC(NC(=O)CCC(N)C(=O)O)C(=O)O` (stereo not given), the TGI in [1], in [3], in assay [4], in assay [5], in assay [6] and in assay [7] was above 100 µM each time. The TGI in assay [8], in assay [9] and in assay [10] was above 100 µM throughout.

For `CCCCC#Cc1cccc(=O)o1`, the GI50 was above 100 µM in assay [1]; above 100 µM in [2]; 18.3 µM in [3]; above 100 µM in assay [5]; above 100 µM in [6]; 7.03 µM in assay [7]. Besides, the GI50 in assay [8] was above 100 µM; in assay [9], 15 µM; in assay [10], 20.3 µM. Besides, the TGI in assay [1], in assay [2], in assay [3], in [5], in [6] and in assay [7] was above 100 µM each time. Further, the TGI in assay [8], in assay [9] and in assay [10] was above 100 µM in each case.

For the origin of these results see PubChem BioAssay (NCI).
